Molecular target: T1, human serum albumin (HSA) (Homo sapiens, UniProt P02768)
T1 construct: gene ALB; commercial HSA (Solarbio), mature plasma protein, 585 residues, 66,500 Da
Assay: intrinsic fluorescence quenching titration (ex […] nm)
Assay type: binding
Conditions: 298 K, pH 7.4 Tris-HCl, 0.1 mol/L NaCl, 5 µmol/L HSA; n = 1.04; double-log; mainly site I (subdomain IIA)

T1 sequence (P02768 25-609): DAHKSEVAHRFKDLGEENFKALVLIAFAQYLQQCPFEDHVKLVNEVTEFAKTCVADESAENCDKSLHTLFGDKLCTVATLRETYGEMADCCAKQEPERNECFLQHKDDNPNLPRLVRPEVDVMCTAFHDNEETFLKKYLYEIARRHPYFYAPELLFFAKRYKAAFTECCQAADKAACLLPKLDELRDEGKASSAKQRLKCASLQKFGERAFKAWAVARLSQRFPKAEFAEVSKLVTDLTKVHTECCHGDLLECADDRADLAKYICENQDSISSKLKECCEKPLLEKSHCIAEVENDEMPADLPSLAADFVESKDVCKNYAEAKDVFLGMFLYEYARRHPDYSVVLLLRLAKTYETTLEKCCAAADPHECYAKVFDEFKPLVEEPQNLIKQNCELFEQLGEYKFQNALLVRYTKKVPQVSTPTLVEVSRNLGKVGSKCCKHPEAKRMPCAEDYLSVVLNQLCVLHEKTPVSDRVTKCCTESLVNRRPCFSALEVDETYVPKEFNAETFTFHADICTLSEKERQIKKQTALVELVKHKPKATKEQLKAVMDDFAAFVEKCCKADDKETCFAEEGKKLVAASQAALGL

Question: For `O=c1cc(O)cc(/C=C/c2ccc(O)c(O)c2)o1` [hispidin], which “Ka (10^5 L/mol)” value is on record?
Answer: 1.03 × 10^5 L/mol
